The results in this text go back to US20100291247A1, “OIL FORMULATIONS AND METHODS OF USE” (priority 2007, published 2010).

Each structure is given as a SMILES string.

The series can be described thus: LC50 of vanillin MEC formulation (pathogen not named). The series is classed as in vivo. The following applies: ppm of Vanillin, applied as 15% MEC formulation; organism not given. An excerpt:
The unit commonly used in the art to determine the effectiveness of the antipathogenic formulation is LC50. This number represents the concentration of formulation at which 50% of pathogens die.

Broadly, the LC50 is the concentration that kills 50% of the test population. For `COc1cc(C=O)ccc1O` [Vanillin, 4-Hydroxy-3-Methoxybenzaldehyde], the LC50 turned out to be 66 ppm.
